# Tested on: Haemonchus contortus L3
# Experiment: Haemonchus contortus L3 (HcL3) in vitro test
# Assay type: cell-based
# Conditions: minimum effective dose
# Description: The Haemonchus contortus L3 (HcL3) test is used to measure the biological activities of the compounds claimed. The assay involves in vitro testing against H. contortus conducted according to the following general procedure.
# HcL3 larvae were collected from infected sheep and, after cleaning, stored in water at 12° C. for up to one month. Viable infective larvae were exsheathed using 10% hypochlorite in Glucose Tyrodes balanced salt solution containing antibiotics and resuspended in basal medium (20 g/l bacto-tryptone, 5 g/l yeast extract, 57 g/l glucose, 0.8 g/l di-Potassium hydrogen orthophosphate, 0.8 g/l potassium dihydrogen orthophosphate and […] Hepes with antibiotics). 95 μl worm suspension was added to each well of a 96 well plate.
# Test compounds were dissolved in dimethylsulfoxide to give a working stock solution of 20 mg/ml. The stock concentration was diluted 1:10 in Basal media to give 2.0 mg/ml (10% DMSO). 5 μl of the stock compound solution was added to the worm suspension to give a final concentration of 100 μg/ml. Plates were sealed with pressure sensitive film and incubated at 37° C. Observations were made 2 hrs, 24 hrs, 48 hrs, 72 hrs and 4 days post-treatment using an inverted microscope. Activity was recorded if a significant proportion of the worms were dead or adversely affected by the compound when compared to the control well containing 1% DMSO. Compounds were initially tested at 100 μg/ml, wherefrom relevant dose responses (100, 30, 10, 3, 1, 0.3, 0.1 μg/ml) were conducted in duplicate experiments to generate n=2. Data was recorded as minimum effective dose.
# [1] = exsheathed L3 larvae in vitro, 37° C., observed up to 4 days, n=2
SMILES,in vitro H.c. (L3) MED [1],in vitro H.c. (L3) MED (unit not given),also measured
"CC(C#N)(COc1cc(C#N)ccc1C(F)(F)F)NC(=O)c1ccc(S(F)(F)(F)(F)F)cc1 (racemic) [Example 1a, N-{1-cyano-2-[5-cyano-2-(trifluoromethyl)phenoxy]-1-methylethyl}-4-(pentafluorothio)benzamide]",3 µg/mL,–,–
"CC(C#N)(COc1cc(C#N)ccc1Cl)NC(=O)c1ccc(S(F)(F)(F)(F)F)cc1 (racemic) [Example 2, N-[2-(2-Chloro-5-cyanophenoxy)-1-cyano-1-methylethyl]-4-(pentafluorothio)benzamide]",1 µg/mL,–,–
"CC(C#N)(COc1ccc(C#N)cc1C(F)(F)F)NC(=O)c1ccc(S(F)(F)(F)(F)F)cc1 (racemic) [Example 3a, N-{1-Cyano-2-[4-cyano-2-(trifluoromethyl)Phenoxy]-1-methylethyl}-4-(pentafluorothio)benzamide]",1 µg/mL,–,–
"CC(C#N)(COc1c(F)cc(C#N)cc1C(F)(F)F)NC(=O)c1ccc(S(F)(F)(F)(F)F)cc1 (racemic) [Example 4, N-{1-Cyano-2-[4-cyano-2-fluoro-6-(trifluoromethyl)phenoxy]-1-methylethyl}-4-(pentafluorothio)benzamide]",3 µg/mL,–,–
"CC(C#N)(COc1ccc(C(N)=O)cc1C(F)(F)F)NC(=O)c1ccc(S(F)(F)(F)(F)F)cc1 (racemic) [Example 43, 4-(2-Cyano-2-{[4-(pentafluorothio)benzoyl]amino}propoxy)-3-(trifluoromethyl)benzamide]",–,1,–
"CC(C#N)(COc1cc(C#N)cc(C(F)(F)F)c1Cl)NC(=O)c1ccc(S(F)(F)(F)(F)F)cc1 (racemic) [Example 44, N-{2-[2-Chloro-5-cyano-3-(trifluoromethyl)phenoxy]-1-cyano-1-methylethyl}-4-(pentafluorothio)benzamide]",–,10,–
"CC(C#N)(COc1cccc(C#N)c1)NC(=O)c1ccc(S(F)(F)(F)(F)F)cc1 (racemic) [Example 50, N-[1-Cyano-2-(3-cyanophenoxy)-1-methylethyl]-4-(pentafluorothio)benzamide]",–,3,–
"CC(C#N)(COc1cc(C#N)cc(C(N)=O)c1)NC(=O)c1ccc(S(F)(F)(F)(F)F)cc1 (racemic) [Example 53, 3-Cyano-5-(2-cyano-2-{[4-(pentafluorothio)benzoyl]amino}propoxy)benzamide]",–,30,–
"C[C@](C#N)(COc1cc(C#N)ccc1C(F)(F)F)NC(=O)c1ccc(S(F)(F)(F)(F)F)cc1 (single isomer, unassigned) [Example 1c, N-{1-cyano-2-[5-cyano-2-(trifluoromethyl)phenoxy]-1-methylethyl}-4-(pentafluorothio)benzamide]",> 30 µg/mL,–,–
"CC(C#N)(COc1ccc(C#N)cc1C(F)(F)F)NC(=O)c1ccc(S(F)(F)(F)(F)F)cc1 (single isomer, unassigned) [Example 3b, N-{1-Cyano-2-[4-cyano-2-(trifluoromethyl)Phenoxy]-1-methylethyl}-4-(pentafluorothio)benzamide]",1 µg/mL,–,–
"CC(C#N)(COc1ccc(C#N)cc1C(F)(F)F)NC(=O)c1ccc(S(F)(F)(F)(F)F)cc1 (single isomer, unassigned) [Example 3c, N-{1-Cyano-2-[4-cyano-2-(trifluoromethyl)Phenoxy]-1-methylethyl}-4-(pentafluorothio)benzamide]",> 30 µg/mL,–,–
"CC(C#N)(COc1cc(C#N)ccc1C(F)(F)F)NC(=O)c1ccc(S(F)(F)(F)(F)F)cc1 (stereo not shown) [Example 1b, N-{1-cyano-2-[5-cyano-2-(trifluoromethyl)phenoxy]-1-methylethyl}-4-(pentafluorothio)benzamide]",1 µg/mL,–,–
"CC(C#N)(COc1ccc(C#N)cc1Cl)NC(=O)c1ccc(S(F)(F)(F)(F)F)cc1 (stereo not shown) [Example 5, N-[2-(2-Chloro-4-cyanophenoxy)-1-cyano-1-methylethyl]-4-(pentafluorothio)benzamide]",–,–,H.c. (L3) MED (table of Examples 5-11): 3 µg/mL

# Reference: US7608604B2, “Antiparasitic agents” (Pfizer Limited, priority 2007, dated 2009)
